From PubChem BioAssay AID464 (The Scripps Research Institute Molecular Screening Center, 2006)
Activity calls are given as the source filed them.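 Rule for the calls: active = Compounds that kill half the cells at a concentration of 5 micromolar or below, from the fitted or estimated CC50; inactive = CC50 above 5 micromolar.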

Tested on: Jurkat E6.1 viability, ATP luminescence, 48 h
Experiment: viability loss in Jurkat T cells – cell-based, ATP luminescence, 48 h, 60K MLSMR, cytotoxicity control, dose response (AID 464)

SMILES	CC50
O=S(=O)(NCc1ccncc1)c1ccc(Br)s1	1 µM
CCN(CC)c1ccc(NC(=O)c2cc(OC)cc(OC)c2)c(C)c1	1.11 µM
Cc1oc(-c2ccc(Cl)cc2)nc1CN1CCCC(C(=O)N2CCN(C(=O)c3ccco3)CC2)C1 (stereo not drawn)	2.07 µM
COc1ccccc1N1CCN(C(=O)C2c3ccccc3Oc3ccccc32)CC1	1.27 µM
CCCOc1ccccc1C1CC(=O)Nc2cc3c(cc21)OCCO3 (stereo not drawn)	0.745 µM
O=C(Nc1nc2ccccc2[nH]1)c1ccccc1F	4.79 µM
Cc1cc(C)cc(NC2=NC3(CCCCC3)N=C(N)N2)c1	4.97 µM
CCCCCN=Cc1c(C)[nH]n(-c2nc3ccccc3s2)c1=O	6.35 µM (inactive)
CCCCC(=O)Nc1ccc(C(=O)NCCCn2ccnc2)cc1	> 4.4 µM (inactive)
COC(=O)c1cc2ccsc2n1CC(=O)Nc1cc(Cl)ccc1OC	> 4.4 µM (inactive)
On1onc2c3cc(-c4ccccc4)nc3ccc21	3.9 µM
Cc1ccc(C2c3c(-c4ccccc4O)n[nH]c3C(=O)N2Cc2ccncc2)cc1 (stereo not drawn)	6.79 µM (inactive)
O=C(NCc1cccs1)c1noc2c1CCCC2	7.48 µM (inactive)
CCc1ccc(CCC(=O)Nc2sc3c(c2C#N)CCCC3)o1	3.05 µM
O=C(Nc1nnc(C2CC2)o1)c1ccc(S(=O)(=O)N2CCCc3ccccc32)cc1	22.9 µM (inactive)
Cc1ccc(C)c(-n2nnnc2Sc2nnnn2-c2ccccc2)c1	5.87 µM (inactive)
COCCOC(=O)c1[nH]c2c(c1C)C(=O)CC(c1ccc(F)cc1)C2 (stereo not drawn)	5.37 µM (inactive)
CCCc1[nH]nc2c1C(c1ccc(Br)s1)C(C#N)=C(N)O2 (stereo not drawn)	> 13 µM (inactive)
COc1ccccc1-c1nnc2sc(-c3cc4ccccc4o3)nn12	0.214 µM
O=C(Nc1ccn(-c2ccccc2)n1)c1ccc(S(=O)(=O)N2CCCCCC2)cc1	19.8 µM (inactive)
COc1ccc(-c2n[nH]c(C)c2-c2ccc(OC)c(OC)c2)c(O)c1	> 4.4 µM (inactive)
Nc1ccc(N2CCCCCC2)cc1	26.3 µM (inactive)
CC(C)Cn1c(N)c(C(=O)CSc2ccc3c(c2)OCCO3)c(=O)n(C)c1=O	> 40 µM (inactive)
CCC(=NC(C)c1ccccc1)c1c(O)n(C)c(=O)n(C)c1=O (stereo not drawn)	11.3 µM (inactive)
Cc1c(C(=O)OCCOC(C)C)[nH]c2c1C(=O)CC(c1ccco1)C2 (stereo not drawn)	0.156 µM
Cc1nc(C)c2c(=O)cc(-c3ccccc3)[nH]c2n1	4.05 µM

SMILES	CC50
Cc1cc(C)cc(NS(=O)(=O)c2ccc3[nH]cc(C(=O)NCc4ccco4)c(=O)c3c2)c1	5.48 µM (inactive)
O=C(CSc1nnnn1-c1ccc2c(c1)OCO2)NCc1ccccc1	> 4.4 µM (inactive)
C=CS(=O)(=O)c1ccc(Oc2ccc(S(=O)(=O)C=C)cc2)cc1	1.9 µM
CC(=O)Nc1ccccc1N(C)S(=O)(=O)c1ccc(C)cc1	4.57 µM
N#CC1=C(N)Oc2cc(N)ccc2C1C1CCCCC1 (stereo not drawn)	2.49 µM
Clc1ccc(OCCN2CCN(c3ncnc4sccc34)CC2)cc1	0.938 µM
Cc1c(C(=O)OC2CCCC2)[nH]c2c1C(=O)CC(c1ccco1)C2 (stereo not drawn)	0.167 µM
Cc1noc(C)c1COc1cccc(C(=O)OCC(=O)N2CC(=O)Nc3ccccc32)c1	6.33 µM (inactive)
COc1ccc(C(O)c2nc3ccccc3n2C)cc1OC (stereo not drawn)	5.83 µM (inactive)
Cc1noc(C)c1CSc1nc2ccccc2nc1NS(=O)(=O)c1ccc(Cl)cc1	31.5 µM (inactive)
Cc1onc(-c2ccccc2Cl)c1C(=O)N1CCN(c2cccc(Cl)c2)CC1	0.832 µM
CN(C)c1ccc2c(c1)OC(N)=C(C#N)C2c1cccc(F)c1 (stereo not drawn)	0.106 µM
Cc1cc(NC(c2cccnc2)c2ccc3cccnc3c2O)no1 (stereo not drawn)	3.25 µM
COc1cc(NS(=O)(=O)c2ccc(C)cc2)c2ncccc2c1	10.1 µM (inactive)
Cc1ccc(C)c(N2CCN(C(=O)c3ccc(CS(=O)(=O)c4ccccc4C)o3)CC2)c1	14.2 µM (inactive)
O=C(NCC(c1cccs1)N1CCOCC1)c1ccc(Cl)s1 (stereo not drawn)	0.882 µM
Fc1ccc(Br)cc1C1C=C(c2cccnc2)Nc2ncnn21 (stereo not drawn)	8.76 µM (inactive)
CCOc1ccc(S(=O)(=O)Nc2cc(OC)ccc2OC)cc1	0.145 µM
O=C(C1CCN(S(=O)(=O)c2cccc3cccnc23)CC1)N1CCN(c2ccc(Cl)cc2)CC1	19.5 µM (inactive)
CCCCn1c(CN2CCN(c3ccccc3)CC2)nc2c1c(=O)n(C)c(=O)n2C	10.4 µM (inactive)
Cc1ccccc1-n1ncc2c(SCC(=O)NCc3cccs3)ncnc21	5.39 µM (inactive)
COC(=O)Nc1ccc(S(=O)(=O)N2c3ccccc3CCC2C)cc1 (stereo not drawn)	2.19 µM
O=C(c1cccc(F)c1)N1CCN(c2cccc(Cl)c2)CC1	4.55 µM
N=c1ccn(Cc2ccc(Cl)c(Cl)c2)cc1	10.4 µM (inactive)
CC1Cc2cc(-c3csc(NC(=O)Cc4cccs4)n3)ccc2N1S(C)(=O)=O (stereo not drawn)	5.23 µM (inactive)
COC(=O)C1=C(C)N(c2ccc(Cl)c(Cl)c2)C(=O)C1	5.37 µM (inactive)

SMILES	CC50
CCOC(=O)c1nc(S(C)(=O)=O)ncc1Cl	4.66 µM
COc1cccc(/C=N/n2c(SC)nnc2-c2ccccc2)c1O	10 µM (inactive)
Cc1ccc2[nH]c3c(NCc4ccco4)ncnc3c2c1	18.7 µM (inactive)
O=C(CCc1ccccc1)Nc1ccc(Cl)cn1	2.15 µM
CC(=O)CC1OC(=O)C(Br)=C1NCc1ccccc1 (stereo not drawn)	3.91 µM
COc1ccc(Nc2nc(N3CCCC3)nc3ccccc23)c(OC)c1	21.9 µM (inactive)
CSC(=Nc1ccccc1)c1c(O)n(C)c(=O)n(C)c1=O	17.8 µM (inactive)
CSC1=C(C#N)C(c2ccc(Cl)cc2)C2=C(CC(C)(C)CC2=O)N1 (stereo not drawn)	14.7 µM (inactive)
CCOc1ccccc1N1CC(O)=C(c2nc3ccccc3s2)C1=N	1.84 µM
Clc1ccc(Cn2ncc3c(NCc4ccco4)ncnc32)c(Cl)c1	3.8 µM
CCCCN(C)S(=O)(=O)c1ccc(C(=O)Nc2nnc(CSC)o2)cc1	27.9 µM (inactive)
CCc1nnc(NC(=O)c2ccc(S(=O)(=O)N(CC)Cc3ccccc3)cc2)o1	26 µM (inactive)
O=C(NCc1cccs1)C1CCN(c2ccc(S(=O)(=O)N3CCOCC3)cc2Cl)CC1	0.875 µM
CCOc1ccc(-c2cc(C(=O)O)c3ccccc3n2)c(OCC)c1	> 40 µM (inactive)
Cc1cccc(OCC(=O)Nc2cc(C)ccc2O)c1	5.78 µM (inactive)
CCN(CC)c1ccc(-c2nn3c(-c4n[nH]c5c4CCC5)nnc3s2)cc1	0.895 µM
Cc1ccccc1OCC(=O)Nc1ccc(N2CCN(C(=O)C(C)C)CC2)c(Cl)c1	> 40 µM (inactive)
CCC/C(O)=C1\C(=O)CC(C)(C)CC1=Nc1ccc(OC)cc1OC	1.78 µM
Cc1ccnc(SCC(=O)Nc2sc3c(c2C#N)CCCC3)n1	> 40 µM (inactive)
COc1ccc(Nc2oc(-c3ccccc3Cl)nc2C#N)cc1	1.42 µM
COc1ccccc1NC(=O)N(Cc1ccco1)Cc1cc2ccc(C)c(C)c2[nH]c1=O	1.81 µM
Cc1cc(C)c2ccc(N)nc2c1O	6.83 µM (inactive)
CC(=O)Nc1ccc(S(=O)(=O)n2cnc3cc(C)c(C)cc32)cc1	24.8 µM (inactive)
CCOC(=O)c1c(C)c(C(=O)Nc2ccc3c(c2)OCCO3)c(C)n1CC	7.96 µM (inactive)
O=C(c1ccccc1-c1ccccc1)N1CCN(c2ccccn2)CC1	1.55 µM
CCOC(=O)C(C)Sc1nc2c(cnn2-c2ccc(C)cc2)c(=O)[nH]1 (stereo not drawn)	> 40 µM (inactive)
